The values below come from patent US20250230193A1, “CYCLIC COMPOUND HAVING SELECTIVE KRAS INHIBITORY EFFECT ON HRAS AND NRAS” (CHUGAI SEIYAKU KABUSHIKI KAISHA, priority 2022, published 2025).

Assay [1] addresses GDP-bound NRAS wild-type protein (Homo sapiens, UniProt P01111). Description: Binding to NRAS by surface plasmon resonance (SPR), Single Cycle Kinetics. The note with it: KD ratio, GDP-bound NRAS wild-type vs GDP-bound KRAS wild-type, SPR. Background: Surface plasmon resonance follows binding to a sensor surface in real time, without labels.
Assay [2] deals with GDP-bound HRAS wild-type protein (Homo sapiens, UniProt P01112). Description: Binding to HRAS by surface plasmon resonance (SPR), Single Cycle Kinetics. Particulars: KD ratio, GDP-bound HRAS wild-type vs GDP-bound KRAS wild-type, SPR.

Each structure is given as a SMILES string.

Chain of GDP-bound NRAS wild-type protein (P01111 whole entry): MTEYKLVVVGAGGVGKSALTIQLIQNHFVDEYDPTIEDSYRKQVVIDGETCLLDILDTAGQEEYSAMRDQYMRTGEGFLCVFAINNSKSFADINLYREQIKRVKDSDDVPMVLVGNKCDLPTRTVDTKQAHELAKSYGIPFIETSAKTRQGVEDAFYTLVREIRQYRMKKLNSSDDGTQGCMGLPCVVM
Chain of GDP-bound HRAS wild-type protein (P01112 whole entry): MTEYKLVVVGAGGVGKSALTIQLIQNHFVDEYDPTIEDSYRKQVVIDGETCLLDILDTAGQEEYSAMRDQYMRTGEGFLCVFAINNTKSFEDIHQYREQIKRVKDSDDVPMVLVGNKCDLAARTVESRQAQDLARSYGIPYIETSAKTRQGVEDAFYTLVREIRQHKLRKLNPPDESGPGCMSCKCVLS

On to `CCO[C@@H]1C[C@H]2C(=O)NC3(CCC3)C(=O)N(C)[C@@H](C3CCCC3)C(=O)N(C)[C@H](C(=O)N(C)C)CC(=O)N(C)[C@@H](Cc3cccs3)C(=O)N[C@@H]([C@@H](C)CC)C(=O)N(C)CC(=O)N(C)[C@H]3CCCCCN(C3=O)[C@@H](Cc3ccc(C(F)(F)F)cc3)C(=O)N(C)CC(=O)N[C@@H](CCc3cc(F)c(C(F)(F)F)c(F)c3)C(=O)N2C1` [PP1169], for which the “NRAS/KRAS (ratio of KD value with respect to NRAS to KD value with respect to KRAS)” value in assay [1] is “B (a compound having 3 or more and less than 10 is denoted as B)”. The “HRAS/KRAS (ratio of KD value with respect to HRAS to KD value with respect to KRAS)” value in assay [2] is “B (a compound having 3 or more and less than 10 is denoted as B)”.
In the case of `CCO[C@@H]1C[C@H]2C(=O)NC3(CCC3)C(=O)N(C)[C@@H](C3CCCC3)C(=O)N(C)[C@H](C(=O)N(C)C)CC(=O)N(C)[C@@H](Cc3ccccc3C#N)C(=O)N[C@@H]([C@@H](C)CC)C(=O)N(C)CC(=O)N(C)[C@H]3CCCCCN(C3=O)[C@@H](Cc3ccc(C(F)(F)F)cc3)C(=O)N(C)CC(=O)N[C@@H](CCc3cc(F)c(C(F)(F)F)c(F)c3)C(=O)N2C1` [PP1171], in assay [1], the “NRAS/KRAS (ratio of KD value with respect to NRAS to KD value with respect to KRAS)” value was “B (a compound having 3 or more and less than 10 is denoted as B)”. The “HRAS/KRAS (ratio of KD value with respect to HRAS to KD value with respect to KRAS)” value in assay [2] was “B (a compound having 3 or more and less than 10 is denoted as B)”.
For `CCO[C@@H]1C[C@H]2C(=O)NC3(CCC3)C(=O)N(C)[C@@H](C3CCCC3)C(=O)N(C)[C@H](C(=O)N(C)C)CC(=O)N(C)[C@@H](Cc3cccc(C#N)c3)C(=O)N[C@@H]([C@@H](C)CC)C(=O)N(C)CC(=O)N(C)[C@H]3CCCCCN(C3=O)[C@@H](Cc3ccc(C(F)(F)F)cc3)C(=O)N(C)CC(=O)N[C@@H](CCc3cc(F)c(C(F)(F)F)c(F)c3)C(=O)N2C1` [PP1172], the “NRAS/KRAS (ratio of KD value with respect to NRAS to KD value with respect to KRAS)” value in assay [1] is “B (a compound having 3 or more and less than 10 is denoted as B)”. Moreover, the “HRAS/KRAS (ratio of KD value with respect to HRAS to KD value with respect to KRAS)” value in assay [2] was “B (a compound having 3 or more and less than 10 is denoted as B)”.
`CCO[C@@H]1C[C@H]2C(=O)NC3(CCC3)C(=O)N(C)[C@@H](C3CCCC3)C(=O)N(C)[C@H](C(=O)N(C)C)CC(=O)N(C)[C@@H](Cc3ccc(C#N)cc3)C(=O)N[C@@H]([C@@H](C)CC)C(=O)N(C)CC(=O)N(C)[C@H]3CCCCCN(C3=O)[C@@H](Cc3ccc(C(F)(F)F)cc3)C(=O)N(C)CC(=O)N[C@@H](CCc3cc(F)c(C(F)(F)F)c(F)c3)C(=O)N2C1` [PP1173]: the “NRAS/KRAS (ratio of KD value with respect to NRAS to KD value with respect to KRAS)” value in assay [1] is “B (a compound having 3 or more and less than 10 is denoted as B)”. Besides, the “HRAS/KRAS (ratio of KD value with respect to HRAS to KD value with respect to KRAS)” value in assay [2] was “B (a compound having 3 or more and less than 10 is denoted as B)”.
As for `CCO[C@@H]1C[C@H]2C(=O)NC3(CCC3)C(=O)N(C)[C@@H](C3CCCC3)C(=O)N(C)[C@H](C(=O)N(C)C)CC(=O)N(C)[C@@H](Cc3ccc(Cl)c(Cl)c3)C(=O)N[C@@H]([C@@H](C)CC)C(=O)N(C)CC(=O)N(C)[C@H]3CCCCCN(C3=O)[C@@H](Cc3ccc(C(F)(F)F)cc3)C(=O)N(C)CC(=O)N[C@@H](CCc3cc(F)c(C(F)(F)F)c(F)c3)C(=O)N2C1` [PP1174], the “NRAS/KRAS (ratio of KD value with respect to NRAS to KD value with respect to KRAS)” value in assay [1] is “B (a compound having 3 or more and less than 10 is denoted as B)”. In addition, the “HRAS/KRAS (ratio of KD value with respect to HRAS to KD value with respect to KRAS)” value in assay [2] is “B (a compound having 3 or more and less than 10 is denoted as B)”.
Regarding `CCO[C@@H]1C[C@H]2C(=O)NC3(CCC3)C(=O)N(C)[C@@H](C3CCCC3)C(=O)N(C)[C@H](C(=O)N3CCOCC3)CC(=O)N(C)[C@@H](C)C(=O)N[C@@H]([C@@H](C)CC)C(=O)N(C)CC(=O)N(C)[C@H]3CCCCCN(C3=O)[C@@H](Cc3ccc(F)cc3)C(=O)N(C)CC(=O)N[C@@H](CCc3cc(F)c(C(F)(F)F)c(F)c3)C(=O)N2C1` [PP1175], the “NRAS/KRAS (ratio of KD value with respect to NRAS to KD value with respect to KRAS)” value in assay [1] is “B (a compound having 3 or more and less than 10 is denoted as B)”. Moreover, the “HRAS/KRAS (ratio of KD value with respect to HRAS to KD value with respect to KRAS)” value in assay [2] was “B (a compound having 3 or more and less than 10 is denoted as B)”.
Regarding `CCO[C@@H]1C[C@H]2C(=O)NC3(CCC3)C(=O)N(C)[C@@H](C3CCCC3)C(=O)N(C)[C@H](C(=O)N3CCOCC3)CC(=O)N(C)[C@@H](CC)C(=O)N[C@@H]([C@@H](C)CC)C(=O)N(C)CC(=O)N(C)[C@H]3CCCCCN(C3=O)[C@@H](Cc3ccc(F)cc3)C(=O)N(C)CC(=O)N[C@@H](CCc3cc(F)c(C(F)(F)F)c(F)c3)C(=O)N2C1` [PP1176], in assay [1], the “NRAS/KRAS (ratio of KD value with respect to NRAS to KD value with respect to KRAS)” value is “B (a compound having 3 or more and less than 10 is denoted as B)”. In addition, in assay [2], the “HRAS/KRAS (ratio of KD value with respect to HRAS to KD value with respect to KRAS)” value is “B (a compound having 3 or more and less than 10 is denoted as B)”.
`CCO[C@@H]1C[C@H]2C(=O)NC3(CCC3)C(=O)N(C)[C@@H](C3CCCC3)C(=O)N(C)[C@H](C(=O)N3CCOCC3)CC(=O)N(C)[C@@H](CC(F)F)C(=O)N[C@@H]([C@@H](C)CC)C(=O)N(C)CC(=O)N(C)[C@H]3CCCCCN(C3=O)[C@@H](Cc3ccc(F)cc3)C(=O)N(C)CC(=O)N[C@@H](CCc3cc(F)c(C(F)(F)F)c(F)c3)C(=O)N2C1` [PP1177]: the “NRAS/KRAS (ratio of KD value with respect to NRAS to KD value with respect to KRAS)” value in assay [1] is “B (a compound having 3 or more and less than 10 is denoted as B)”. In addition, in assay [2], the “HRAS/KRAS (ratio of KD value with respect to HRAS to KD value with respect to KRAS)” value was “B (a compound having 3 or more and less than 10 is denoted as B)”.
As for `CCO[C@@H]1C[C@H]2C(=O)NC3(CCC3)C(=O)N(C)[C@@H](C3CCCC3)C(=O)N(C)[C@H](C(=O)N3CCOCC3)CC(=O)N(C)[C@@H](CC3CC3)C(=O)N[C@@H]([C@@H](C)CC)C(=O)N(C)CC(=O)N(C)[C@H]3CCCCCN(C3=O)[C@@H](Cc3ccc(F)cc3)C(=O)N(C)CC(=O)N[C@@H](CCc3cc(F)c(C(F)(F)F)c(F)c3)C(=O)N2C1` [PP1178], the “NRAS/KRAS (ratio of KD value with respect to NRAS to KD value with respect to KRAS)” value in assay [1] was “B (a compound having 3 or more and less than 10 is denoted as B)”. For the same compound, the “HRAS/KRAS (ratio of KD value with respect to HRAS to KD value with respect to KRAS)” value in assay [2] is “B (a compound having 3 or more and less than 10 is denoted as B)”.
Take `CCO[C@@H]1C[C@H]2C(=O)NC3(CCC3)C(=O)N(C)[C@@H](C3CCCC3)C(=O)N(C)[C@H](C(=O)N3CCOCC3)CC(=O)N(C)[C@@H](COC)C(=O)N[C@@H]([C@@H](C)CC)C(=O)N(C)CC(=O)N(C)[C@H]3CCCCCN(C3=O)[C@@H](Cc3ccc(F)cc3)C(=O)N(C)CC(=O)N[C@@H](CCc3cc(F)c(C(F)(F)F)c(F)c3)C(=O)N2C1` [PP1179]: the “NRAS/KRAS (ratio of KD value with respect to NRAS to KD value with respect to KRAS)” value in assay [1] is “B (a compound having 3 or more and less than 10 is denoted as B)”. In addition, in assay [2], the “HRAS/KRAS (ratio of KD value with respect to HRAS to KD value with respect to KRAS)” value was “B (a compound having 3 or more and less than 10 is denoted as B)”.
As to `CCO[C@@H]1C[C@H]2C(=O)NC3(CCC3)C(=O)N(C)[C@@H](C3CCCC3)C(=O)N(C)[C@H](C(=O)N3CCOCC3)CC(=O)N(C)[C@@H](CCOC)C(=O)N[C@@H]([C@@H](C)CC)C(=O)N(C)CC(=O)N(C)[C@H]3CCCCCN(C3=O)[C@@H](Cc3ccc(F)cc3)C(=O)N(C)CC(=O)N[C@@H](CCc3cc(F)c(C(F)(F)F)c(F)c3)C(=O)N2C1` [PP1180], the “NRAS/KRAS (ratio of KD value with respect to NRAS to KD value with respect to KRAS)” value in assay [1] was “B (a compound having 3 or more and less than 10 is denoted as B)”. Further, the “HRAS/KRAS (ratio of KD value with respect to HRAS to KD value with respect to KRAS)” value in assay [2] was “B (a compound having 3 or more and less than 10 is denoted as B)”.
Consider `CCO[C@@H]1C[C@H]2C(=O)NC3(CCC3)C(=O)N(C)[C@@H](C3CCCC3)C(=O)N(C)[C@H](C(=O)N3CCOCC3)CC(=O)N(C)[C@@H](Cc3cccs3)C(=O)N[C@@H]([C@@H](C)CC)C(=O)N(C)CC(=O)N(C)[C@H]3CCCCCN(C3=O)[C@@H](Cc3ccc(F)cc3)C(=O)N(C)CC(=O)N[C@@H](CCc3cc(F)c(C(F)(F)F)c(F)c3)C(=O)N2C1` [PP1183], for which the “NRAS/KRAS (ratio of KD value with respect to NRAS to KD value with respect to KRAS)” value in assay [1] is “B (a compound having 3 or more and less than 10 is denoted as B)”. For the same compound, the “HRAS/KRAS (ratio of KD value with respect to HRAS to KD value with respect to KRAS)” value in assay [2] is “B (a compound having 3 or more and less than 10 is denoted as B)”.
Take `CCO[C@@H]1C[C@H]2C(=O)NC3(CCC3)C(=O)N(C)[C@@H](C3CCCC3)C(=O)N(C)[C@H](C(=O)N3CCOCC3)CC(=O)N(C)[C@@H](Cc3ccsc3)C(=O)N[C@@H]([C@@H](C)CC)C(=O)N(C)CC(=O)N(C)[C@H]3CCCCCN(C3=O)[C@@H](Cc3ccc(F)cc3)C(=O)N(C)CC(=O)N[C@@H](CCc3cc(F)c(C(F)(F)F)c(F)c3)C(=O)N2C1` [PP1184]: the “NRAS/KRAS (ratio of KD value with respect to NRAS to KD value with respect to KRAS)” value in assay [1] was “B (a compound having 3 or more and less than 10 is denoted as B)”. In addition, the “HRAS/KRAS (ratio of KD value with respect to HRAS to KD value with respect to KRAS)” value in assay [2] is “B (a compound having 3 or more and less than 10 is denoted as B)”.
Consider `CCO[C@@H]1C[C@H]2C(=O)NC3(CCC3)C(=O)N(C)[C@@H](C3CCCC3)C(=O)N(C)[C@H](C(=O)N3CCOCC3)CC(=O)N(C)[C@@H](Cc3ccccc3C#N)C(=O)N[C@@H]([C@@H](C)CC)C(=O)N(C)CC(=O)N(C)[C@H]3CCCCCN(C3=O)[C@@H](Cc3ccc(F)cc3)C(=O)N(C)CC(=O)N[C@@H](CCc3cc(F)c(C(F)(F)F)c(F)c3)C(=O)N2C1` [PP1185], for which the “NRAS/KRAS (ratio of KD value with respect to NRAS to KD value with respect to KRAS)” value in assay [1] was “B (a compound having 3 or more and less than 10 is denoted as B)”. For the same compound, in assay [2], the “HRAS/KRAS (ratio of KD value with respect to HRAS to KD value with respect to KRAS)” value is “B (a compound having 3 or more and less than 10 is denoted as B)”.
With `CCO[C@@H]1C[C@H]2C(=O)NC3(CCC3)C(=O)N(C)[C@@H](C3CCCC3)C(=O)N(C)[C@H](C(=O)N3CCOCC3)CC(=O)N(C)[C@@H](Cc3cccc(C#N)c3)C(=O)N[C@@H]([C@@H](C)CC)C(=O)N(C)CC(=O)N(C)[C@H]3CCCCCN(C3=O)[C@@H](Cc3ccc(F)cc3)C(=O)N(C)CC(=O)N[C@@H](CCc3cc(F)c(C(F)(F)F)c(F)c3)C(=O)N2C1` [PP1186], the “NRAS/KRAS (ratio of KD value with respect to NRAS to KD value with respect to KRAS)” value in assay [1] was “B (a compound having 3 or more and less than 10 is denoted as B)”. Besides, the “HRAS/KRAS (ratio of KD value with respect to HRAS to KD value with respect to KRAS)” value in assay [2] was “B (a compound having 3 or more and less than 10 is denoted as B)”.
